Test results taken from ChEMBL document CHEMBL1255507, “Azole derivatives as histamine H3 receptor antagonists, part 2: C-C and C-S coupled heterocycles” (Bioorg Med Chem Lett, 2010).
pKi: −log10 of the molar value.

molecular target: T1, Histamine H3 receptor (Homo sapiens, UniProt Q9Y5N1); experiment: Displacement of [125I]Iodoproxyfan from human histamine H3 receptor expressed in HEK293 cells; assay type: cell-based
T1 sequence (Q9Y5N1 whole entry): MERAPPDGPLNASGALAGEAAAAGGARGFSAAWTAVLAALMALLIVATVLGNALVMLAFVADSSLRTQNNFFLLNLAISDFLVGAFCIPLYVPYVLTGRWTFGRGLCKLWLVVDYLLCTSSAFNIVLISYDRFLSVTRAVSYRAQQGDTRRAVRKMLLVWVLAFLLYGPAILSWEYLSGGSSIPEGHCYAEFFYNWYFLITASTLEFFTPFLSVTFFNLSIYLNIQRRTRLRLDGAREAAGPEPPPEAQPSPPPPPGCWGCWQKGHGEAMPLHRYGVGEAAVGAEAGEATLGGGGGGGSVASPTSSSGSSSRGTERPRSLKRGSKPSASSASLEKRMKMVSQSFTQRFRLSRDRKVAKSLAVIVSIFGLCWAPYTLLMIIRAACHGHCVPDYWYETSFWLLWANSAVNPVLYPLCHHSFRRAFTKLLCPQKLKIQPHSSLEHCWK

SMILES | pKi
CC(=O)c1sc(SCCCN2CCCCC2)nc1C | < 6.00
C1CCN(CCCOc2nc3c(s2)CN(CCCN2CCCCC2)CC3)CC1 | 7.70
c1cc(-c2nnc(SCCCN3CCCCC3)o2)ccn1 | 6.73
c1cncc(-c2noc(CCCCN3CCCCC3)n2)c1 | 6.96

More lines, now with the values ahead:

pKi | SMILES
7.49 | c1ccc(-c2nc(SCCCN3CCCCC3)oc2-c2ccccc2)cc1
8.13 | c1ccc(-c2nc(SCCCN3CCCCC3)sc2-c2ccccc2)cc1
7.20 | c1ccc(-c2cnc(CCCCN3CCCCC3)o2)cc1

molecular target: T1, Histamine H3 receptor; experiment: Displacement of [3H]Methylhistamine from human histamine H3 receptor expressed in HEK293 cells; assay type: cell-based

pKi | SMILES
7.74 | c1cc(-c2nc(SCCCN3CCCCC3)nn2CCCN2CCCCC2)ccn1
